Results published in patent US8039458B2, “HIV integrase inhibitors” (priority 2005, dated 2011).

Experiments:
HIV-Integrase = target: T1, HIV-Integrase (Human immunodeficiency virus type 1 group M subtype B, UniProt P12497); test: HIV-Integrase binding assay (competition with [3H]-compound I, SPA); conditions: competitive binding vs [3H]-compound I to purified integrase; Ki by Cheng and Prusoff; read-out: in vitro binding
T1 construct: Recombinant integrase (0.26 ng) was incubated with the beads
Procedure: HIV-Integrase Inhibition Activity. To evaluate in-vitro activity against HIV-integrase, 5 pmole of biotin labeled substrate DNA was bound to 100 μg of Streptavidin coated PVT SPA beads (Amersham Pharmacia Biotech). Recombinant integrase (0.26 ng) was incubated with the beads for 90 min at 37° C. Unbound enzyme was removed by washing the complex followed by addition of inhibitors and 0.1 fmol of P33 labeled target DNA. The reaction was stopped by adding EDTA to a final concentration of 10 mM. Samples were counted in TopCountNXT (Packard) and the CPM was used as a measure of integration. The reaction condition was as described in A. Engelman and R. Craigie, J. Virol. 69, 5908-5911 (1995). The sequences of substrate and target DNA were described in Nucleic Acid Research 22,1121-1122 (1994).
HIV-Integrase binding assay. In this assay competitive binding experiments with test compounds and a radiolabeled integrase inhibitor (compound I) are performed against purified integrase. SPA bead/DNA/enzyme complexes were prepared as for the integrase inhibition assay except, to each well, 0.69 μl of integrase enzyme ([…]) was used per 2 μl of LTR DNA-attached scintillation proximity beads (stock 50 mg/ml). Binding reactions were carried out in 96-well white polystyrene assay plates (Corning, #3600). The following was added sequentially to each well: 20 μl of water or 20 μl of human serum (Cellgro Cat# 35-060-CL), 5 μl of serially diluted compound (in 50% DMSO/50% integrase SPA buffer), 5 μl of [^3H]-compound I (6,000 cpm/μl in SPA buffer) and 20 μl of bead/DNA/enzyme complex. The plates were shaken for 2 hours and then allowed to sit at room temperature without shaking overnight. The [^3H]-compound I binding was measured using a Topcount scintillation counter. Cheng and Prusoff equations were used to convert the inhibition of compound 1 binding into the corresponding Ki value. Activity equal to A refers to a compound having Ki=0.001 to 0.003 μM while B and C denote compounds having Ki=0.003 to 0.05 μM and Ki≧0.050 μM respectively.

[1] = test system: recombinant NL-Rluc virus; test: Inhibition of HIV replication (NL-RLuc virus, Renilla luciferase); format: cell-based; conditions: Human immunodeficiency virus 1, read-out: antiviral actitively

| Structure (SMILES) | Ki (HIV-Integrase) [nM] | EC50 [1] [nM] |
| --- | --- | --- |
| Cc1ncnn1-c1cc(F)ccc1CNC(=O)c1nc2n(c(=O)c1O)CCOCC21CCCC1 [Example 23, N-((4-fluoro-2-(5-methyl-1H-1,2,4-triazol-1-yl)phenyl)methyl)-3′-hydroxy-4′-oxo-6′,7′-dihydro-4′H-spiro[cyclopentane-1,10′-pyrimido[1,2-d][1,4]oxazepine]-2′-carboxamide] | 1 to 3 | 1 to 10 |
| O=C(NCc1ccc(F)cc1)c1nc2n(c(=O)c1O)CCOCC21CCCC1 [Example 12, N-((4-fluorophenyl)methyl)-3′-hydroxy-4′-oxo-6′,7′-dihydro-4′H-spiro[cyclopentane-1,10′-pyrimido[1,2-d][1,4]oxazepine]-2′-carboxamide] | 1 to 3 | 1 to 10 |
| COP(=O)(OC)c1cc(F)ccc1CNC(=O)c1nc2n(c(=O)c1O)CCOCC2(C)C [Example 17, Dimethyl (5-fluoro-2-((((3-hydroxy-10,10-dimethyl-4-oxo-6,7,9,10-tetrahydro-4H-pyrimido[1,2-d][1,4]oxazepin-2-yl)carbonyl)amino)methyl)phenyl)-phosphonate] | 3 to 50 | 1 to 10 |
| O=C(NCc1ccc(F)cc1)c1nc2n(c(=O)c1O)CCOCC21CCC1 [Example 7, N-((4-fluorophenyl)methyl)-3′-hydroxy-4′-oxo-6′,7′-dihydro-4′H-spiro[cyclobutane-1,10′-pyrimido[1,2-d][1,4]oxazepine]-2′-carboxamide] | 1 to 3 | 10 to 50 |
| CC1(C)COCCn2c1nc(C(=O)NCc1ccc(F)cc1)c(O)c2=O [Example 1, N-((4-Fluorophenyl)methyl)-3-hydroxy-10,10-dimethyl-4-oxo-6,7,9,10-tetrahydro-4H-pyrimido[1,2-d][1,4]oxazepine-2-carboxamide] | 3 to 50 | 10 to 50 |
| Cc1ncn(-c2cc(F)ccc2CNC(=O)c2nc3n(c(=O)c2O)CCOCC32CCCC2)n1 [Example 21, N-((4-fluoro-2-(3-methyl-1H-1,2,4-triazol-1-yl)phenyl)methyl)-3′-hydroxy-4′-oxo-6′,7′-dihydro-4′H-spiro[cyclopentane-1,10′-pyrimido[1,2-d][1,4]oxazepine]-2′-carboxamide] | 1 to 3 | 1 to 10 |
| Cc1nc(-c2cc(F)ccc2CNC(=O)c2nc3n(c(=O)c2O)CCOCC32CCOCC2)n(C)n1 [Example 41, N-((2-(1,3-dimethyl-1H-1,2,4-triazol-5-yl)-4-fluorophenyl)methyl)-3′-hydroxy-4′-oxo-2,3,5,6,6′,7′-hexahydro-4′H-spiro[pyran-4,10′-pyrimido[1,2-d][1,4]oxazepine]-2′-carboxamide] | 3 to 50 | 10 to 50 |
| Cc1cnnn1-c1cc(F)ccc1CNC(=O)c1nc2n(c(=O)c1O)CCOCC2(C)C [Example 19, N-(4-fluoro-2-(5-methyl-1H-1,2,3-triazol-1-yl)benzyl)-3-hydroxy-10,10-dimethyl-4-oxo-6,7,9,10-tetrahydro-4H-pyrimido[1,2-d][1,4]oxazepine-2-carboxamide] | 3 to 50 | 1 to 10 |
| Cc1ncn(-c2cc(F)ccc2CNC(=O)c2nc3n(c(=O)c2O)CCOCC3(C)C)n1 [Example 6, N-((4-fluoro-2-(3-methyl-1H-1,2,4-triazol-1-yl)phenyl)methyl)-3-hydroxy-10,10-dimethyl-4-oxo-6,7,9,10-tetrahydro-4H-pyrimido[1,2-d][1,4]oxazepine-2-carboxamide] | 3 to 50 | 1 to 10 |
| O=C(NCc1ccc(F)cc1-n1cncn1)c1nc2n(c(=O)c1O)CCOCC21CCCC1 [Example 14, N-((4-fluoro-2-(1H-1,2,4-triazol-1-yl)phenyl)methyl)-3′-hydroxy-4′-oxo-6′,7′-dihydro-4′H-spiro[cyclopentane-1,10′-pyrimido[1,2-d][1,4]oxazepine]-2′-carboxamide] | 1 to 3 | 1 to 10 |
